Assays:
[1] = tested on: Ovariectomized rats; experiment: Vaginal keratinization test on ovariectomized rats (Example C.2); format: in vivo; details: estradiol undecylate induced keratinization, per os once daily on days 1-3, active dose = 50% of rats show complete suppression; for minimal effective dose: Rattus norvegicus, po, read-out: LAD (lowest active dose)
In short: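 Ovariectomized rats given s.c. estradiol undecylate (100 μg per 100 g body weight in sesame oil), then oral compound once daily on days 1-3 (vehicle PEG 200). Vaginas assessed histologically one day after last dose; lowest active dose (mg/kg) is the dose giving complete keratinization suppression in 50% of rats.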

[2] = tested on: metabolism of retinoic acid in human breast cancer cells; experiment: Inhibition of retinoic acid (RA) metabolism (Example C.1); format: cell-based; details: MCF-7 human breast cancer cells, 3H-RA as substrate, concentration needed to reduce the amount of metabolites to 50% of the control
In short: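 MCF-7 cells, pre-stimulated with RA the day before, incubated with ³H-RA substrate and test compound in 1% DMSO. Polar ³H-metabolites separated from unmetabolized RA and counted by scintillation. IC50 is the concentration cutting metabolite formation to 50% of control, with blank run alongside.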

Row | IC50 ([2]; MCF7) | IC50 [2] | Compound | minimal effective dose [1] | LAD (lowest active dose) [1]
1 | 8.15 nM |  | CC(Cc1ccccc1)C(=O)Nc1ccc(C(C(C)C)n2ccnc2)cc1 (racemic) [Compound 164, (±)-N-[4-[1-(1H-imidazol-1-yl)-2-methylpropyl]phenyl]-α-methylbenzenepropanamide] | 20 mg/kg | 
2 |  | 6.53 nM | C/C(=C\c1ccc([N+](=O)[O-])cc1)C(=O)Nc1ccc(C(C(C)C)n2ccnc2)cc1 (racemic) [Compound 610] |  | >10.00 mg/kg
3 |  | 1.47 nM | CC(C)C(c1ccc(NC(=O)Cc2cccc(F)c2)cc1)n1ccnc1 (centres unmarked) [Compound 656] |  | 10.00 mg/kg
4 | 1.29 nM |  | CC(C)C(c1ccc(NC(=O)Nc2ccc(F)cc2)cc1)n1ccnc1 (racemic) [Compound 740, (±)-N-(4-fluorophenyl)-N′-[4-[1-(1H-imidazol-1-yl)-2-methylpropyl]phenyl]urea] | 20 mg/kg | 
5 |  | 4.06 nM | CC(C)Oc1ccc(CC(=O)Nc2ccc(C(C(C)N(C)C)n3ccnc3)cc2)cc1 (single isomer, unassigned) [Compound 316] |  | 5.00 mg/kg
6 |  | 7.8 nM | CC(C)C(c1ccc(NC(=O)c2ccnc3ccccc23)cc1)n1ccnc1 (racemic) [Compound 227] |  | >10.00 mg/kg
7 |  | 4.16 nM | CC(C)C(c1ccc(NC(=O)c2cc3ccccc3o2)cc1)n1ccnc1 (racemic) [Compound 167] |  | 10.00 mg/kg
8 |  | 73 nM | CC(C)C(c1ccc(NC(=O)c2ccc[nH]c2=O)cc1)n1ccnc1 (racemic) [Compound 228] |  | >10.00 mg/kg
9 |  | 3.83 nM | C/C(=C\c1cccs1)C(=O)Nc1ccc(C(C(C)C)n2ccnc2)cc1 (racemic) [Compound 595] |  | 10.00 mg/kg
10 |  | 1.08 nM | CC(C)(C)CC(c1ccc(NC(=O)Cc2ccc(Cl)cc2)cc1)n1ccnc1 (racemic) [Compound 360] |  | 2.50 mg/kg
11 |  | 0.955 nM | CCC(C(c1ccc(NC(=O)Cc2ccc(OC)c(OC)c2)cc1)n1ccnc1)N(C)C (single isomer, unassigned) [Compound 393] |  | 5.00 mg/kg
12 |  | 0.583 nM | CC(C(c1ccc(NC(=O)Cc2ccc(Cl)cc2)cc1)n1ccnc1)N(C)C (single isomer, unassigned) [Compound 368] |  | 2.50 mg/kg
13 |  | 25.7 nM | C/C(=C\c1cccnc1)C(=O)Nc1ccc(C(C(C)C)n2ccnc2)cc1 (racemic) [Compound 575] |  | 20.00 mg/kg
14 |  | > 100 nM | CC(C)C(c1ccc(NC(=O)Cc2cccc(Cl)c2)cc1)n1ccnc1 (racemic) [Compound 652] |  | 10.00 mg/kg
15 |  | 1.16 nM | CCOc1ccc(CC(=O)Nc2ccc(C(C(CC)CC)n3cncn3)cc2)cc1OCC (racemic) [Compound 82] |  | 2.50 mg/kg
16 |  | 38.1 nM | O=C(Nc1ccc(C(c2ccccc2)n2ccnc2)cc1)C1COc2ccccc2O1 (centres unmarked) [Compound 425] |  | >10.00 mg/kg
17 |  | 5.27 nM | O=C(Cc1ccc(Cl)cc1)Nc1ccc(C2(n3ccnc3)CCC2)cc1 [Compound 774] |  | 10.00 mg/kg
18 |  | 126 nM | CC(=Cc1ccccc1)C(=O)Nc1ccc(C(C(C)C)n2cnnc2)cc1 (centres unmarked) [Compound 749] |  | >20.00 mg/kg
19 |  | 35.7 nM | O=C(Cc1ccccc1)Nc1ccc(C(c2cccc(F)c2)n2cncn2)cc1 (racemic) [Compound 619] |  | >20.00 mg/kg
20 |  | > 1000 nM | CCCCC(c1ccc(NC(=O)/C(C)=C/c2ccccc2)cc1)n1ccnc1 (racemic) [Compound 462] |  | 20.00 mg/kg
21 |  | 1.01 nM | CCC(CC)C(c1ccc(NC(=O)C2COc3ccccc3C2)cc1)n1ccnc1 (mixture of isomers) [Compound 33] |  | 5.00 mg/kg
22 |  | > 100 nM | C/C(=C\c1cc(=O)[nH]c2ccccc12)C(=O)Nc1ccc(C(C(C)C)n2ccnc2)cc1 (racemic) [Compound 603] |  | >10.00 mg/kg
